This series in a line: Particle size distribution by laser diffraction (Malvern Mastersizer 3000). In kind it is physicochemical. The following applies: aqueous suspension, after ultrasonification. As for the experimental part:
For the purpose of this invention, particle size distribution (PSD) is determined as the percent volume at each particle size and measured by a laser diffraction method in the context of a circulating aqueous suspension.
A Malvern Mastersizer 3000 laser diffraction analyzer equipped with a Hydro EV measurement cell was used. About 50 mg of sample were filled into a 15 ml glass test tube. The sample was wetted with two drops of Tween 80 and vortexed. Then the thoroughly wetted sample was dispersed in about 7 mL of UHQ-water by vortexing until the particles were dispersed. The suspension was treated for 7 minutes in an ultrasonification bath at RT (Elma S50H). The well dispersed suspension was then measured in water by adding a sample from the center of the test tube containing the well dispersed suspension to a water-filled dispersion unit prefilled with 70 mL of water. The sample in the 70 mL dispersion unit was kept under stirring at 2000 rpm. More sample from the test tube was added, until a targeted obscuration range of 10-25 percent was achieved. The Malvern Mastersizer was operated using the following parameters:
Particle size distribution was measured with a Malvern Mastersizer 3000 laser diffraction analyzer equipped with a Hydro EV measurement cell. About 50 mg of sample were given into a test tube. The sample was wetted with two drops of Tween 80 and dispersed in about 7 ml of water on a Vortexer. The suspension was treated for 7 minutes in a ultrasonification bath (Elma S50H). The well dispersed suspension was afterwards measured in water at a targeted obscuration range of 10-25 percent while circulating the aqueous suspension and stirring the suspension reservoir at 2000 rpm after a waiting period of three minutes. A fraunhofer optical model was utilized to deconvolute the sample scattering patterns to yield the resultant particle size distributions. Analysis model: General purpose/normal sensitivity. Measuring/background time: about 10 sec

SMILES strings stand for the structures.

From patent US11072605B2, “Crystalline brexpiprazole” (Hexal Aktiengesellschaft, priority 2017, dated 2021) come the findings set out here.

Take `O=c1ccc2ccc(OCCCCN3CCN(c4cccc5sccc45)CC3)cc2[nH]1` [(i)]: the “d(4,3) volume mean diameter” value was “D(4.3): 19 μm”. Further, for the setting “volume distribution”, the “d(10)” value was “D(10): 1.5 μm” and the “d(90)” value is reported as “D(90): 42 μm”.

As for `O=c1ccc2ccc(OCCCCN3CCN(c4cccc5sccc45)CC3)cc2[nH]1` [(ii)], the “d(4,3) volume mean diameter” value is on record as “D(4.3): 30 μm”. Moreover, where the note is “volume distribution”, the “d(10)” value is “D(10): 1.3 μm” and the “d(90)” value is recorded as “D(90); 79 μm”.

As for `O=c1ccc2ccc(OCCCCN3CCN(c4cccc5sccc45)CC3)cc2[nH]1` [Compound I, 7-[4-[4-(1-Benzothiophen-4-yl)piperazin-1-yl]butoxy]quinolin-2(1H)-one, reference compound], under “volume distribution”, the “d(10)” value is recorded as 0.8 μm, the “d(50)” value came to 3 μm and the “d(90)” value stood at 10.8 μm.
